Data published in the CheMixHub viscosity set.
± gives the uncertainty stated by the source.

Assay: xn = mol fraction of the nth substance listed

Cc1ccc(O)cc1 + C1CCCCC1
viscosity [mPa·s]
Conditions | 101 kPa | 101.33 kPa
303.15 K, x2 = 0.1014 | 7.352 ± 0.11 | 7.352 ± 0.2
303.15 K, x2 = 0.1683 | 5.44 ± 0.081 | 5.44 ± 0.14
303.15 K, x2 = 0.3021 | 4.004 ± 0.06 | 4.004 ± 0.11
303.15 K, x2 = 0.3949 | 2.988 ± 0.045 | 2.988 ± 0.078
303.15 K, x2 = 0.5007 | 2.25 ± 0.034 | 2.25 ± 0.059
303.15 K, x2 = 0.6007 | 1.732 ± 0.026 | 1.732 ± 0.045
303.15 K, x2 = 0.7004 | 1.35 ± 0.02 | 1.35 ± 0.035
303.15 K, x2 = 0.7973 | 1.11 ± 0.017 | 1.1 ± 0.029
303.15 K, x2 = 0.8999 | 0.909 ± 0.014 | 0.909 ± 0.024
308.15 K, x1 = 0.0725 | 0.8571 ± 0.007 | –
308.15 K, x1 = 0.2007 | 1.086 ± 0.0087 | –
308.15 K, x1 = 0.3167 | 1.393 ± 0.011 | –
308.15 K, x1 = 0.3977 | 1.673 ± 0.013 | –
308.15 K, x1 = 0.5218 | 2.252 ± 0.017 | –
308.15 K, x1 = 0.6527 | 3.175 ± 0.024 | –
308.15 K, x1 = 0.7637 | 4.421 ± 0.033 | –
308.15 K, x1 = 0.8681 | 6.119 ± 0.043 | –
308.15 K, x1 = 0.9441 | 7.786 ± 0.053 | –

Cc1cccc(C)c1 + C1CCCCC1
101 kPa
Conditions | viscosity [mPa·s]
303 K, x1 = 0.1017 | 0.7217 ± 0.0051
303 K, x1 = 0.2009 | 0.6601 ± 0.0048
303 K, x1 = 0.3085 | 0.6191 ± 0.0046
303 K, x1 = 0.4005 | 0.5943 ± 0.0045
303 K, x1 = 0.503 | 0.5759 ± 0.0045
303 K, x1 = 0.5848 | 0.5648 ± 0.0044
303 K, x1 = 0.7009 | 0.552 ± 0.0044
303 K, x1 = 0.8041 | 0.5484 ± 0.0045
303 K, x1 = 0.9025 | 0.5445 ± 0.0045
308.15 K, x2 = 0.0628 | 0.516 ± 0.0094
308.15 K, x2 = 0.1619 | 0.5217 ± 0.0094
308.15 K, x2 = 0.2398 | 0.522 ± 0.0095
308.15 K, x2 = 0.3421 | 0.5304 ± 0.0096
308.15 K, x2 = 0.4497 | 0.5417 ± 0.0097
308.15 K, x2 = 0.5501 | 0.5626 ± 0.01
308.15 K, x2 = 0.6692 | 0.587 ± 0.01
308.15 K, x2 = 0.7673 | 0.6144 ± 0.011
308.15 K, x2 = 0.8649 | 0.6595 ± 0.011
308.15 K, x2 = 0.9489 | 0.7148 ± 0.012
313 K, x1 = 0.1017 | 0.6251 ± 0.0045
313 K, x1 = 0.2009 | 0.5799 ± 0.0043
313 K, x1 = 0.3085 | 0.548 ± 0.0041
313 K, x1 = 0.4005 | 0.5296 ± 0.0041
313 K, x1 = 0.503 | 0.5178 ± 0.0041
313 K, x1 = 0.5848 | 0.508 ± 0.0041
313 K, x1 = 0.7009 | 0.5009 ± 0.0041
313 K, x1 = 0.8041 | 0.493 ± 0.0041
313 K, x1 = 0.9025 | 0.492 ± 0.0042
313.15 K, x2 = 0.0628 | 0.4892 ± 0.009
313.15 K, x2 = 0.1619 | 0.4949 ± 0.0091
313.15 K, x2 = 0.2398 | 0.4963 ± 0.0091
313.15 K, x2 = 0.3421 | 0.5022 ± 0.0092
313.15 K, x2 = 0.4497 | 0.5152 ± 0.0093
313.15 K, x2 = 0.5501 | 0.5304 ± 0.0096
313.15 K, x2 = 0.6692 | 0.5548 ± 0.0099
313.15 K, x2 = 0.7673 | 0.5837 ± 0.01
313.15 K, x2 = 0.8649 | 0.6213 ± 0.011
313.15 K, x2 = 0.9489 | 0.6685 ± 0.011
323 K, x1 = 0.1017 | 0.5481 ± 0.004
323 K, x1 = 0.2009 | 0.5125 ± 0.0039
323 K, x1 = 0.3085 | 0.4884 ± 0.0038
323 K, x1 = 0.4005 | 0.4736 ± 0.0037
323 K, x1 = 0.503 | 0.4625 ± 0.0037
323 K, x1 = 0.5848 | 0.4562 ± 0.0037
323 K, x1 = 0.7009 | 0.45 ± 0.0037
323 K, x1 = 0.8041 | 0.4466 ± 0.0038
323 K, x1 = 0.9025 | 0.4461 ± 0.0038

O=S(=O)(Cl)Cl + C1CCCCC1
298.15 K, 101 kPa
Conditions | viscosity [mPa·s]
x1 = 0.321 | 0.7303
x1 = 0.647 | 0.677
x1 = 0.797 | 0.6695

O=S1(=O)CCCC1 + C1CCOC1
viscosity [mPa·s], 101 kPa
Conditions | 303.15 K | 308.15 K | 313.15 K | 318.15 K | 323.15 K
x2 = 0.268 | 3.74 ± 0.39 | 2.9 ± 0.29 | 3.41 ± 0.34 | 2.93 ± 0.29 | 2.68 ± 0.27
x2 = 0.541 | 1.53 ± 0.15 | 1.46 ± 0.15 | 1.34 ± 0.13 | 1.26 ± 0.13 | 1.18 ± 0.12
x2 = 0.772 | 0.77 ± 0.08 | 0.74 ± 0.07 | 0.72 ± 0.07 | 0.7 ± 0.07 | 0.68 ± 0.07

Cc1ccc(O)cc1 + C1COCCO1
viscosity [mPa·s], 101 kPa
Conditions | 303.15 K | 308.15 K | 313.15 K | 318.15 K
x1 = 0.0835 | 1.335 ± 0.01 | 1.184 ± 0.0093 | 1.097 ± 0.0087 | 0.9967 ± 0.0079
x1 = 0.1701 | 1.476 ± 0.011 | 1.319 ± 0.01 | 1.201 ± 0.0094 | 1.106 ± 0.0087
x1 = 0.26 | 1.752 ± 0.013 | 1.563 ± 0.012 | 1.422 ± 0.011 | 1.289 ± 0.01
x1 = 0.3534 | 2.165 ± 0.017 | 1.887 ± 0.015 | 1.71 ± 0.013 | 1.542 ± 0.012
x1 = 0.4504 | 2.798 ± 0.021 | 2.473 ± 0.019 | 2.175 ± 0.017 | 1.964 ± 0.015
x1 = 0.5515 | 3.65 ± 0.028 | 3.108 ± 0.024 | 2.733 ± 0.021 | 2.409 ± 0.019
x1 = 0.6567 | 4.783 ± 0.036 | 4.09 ± 0.031 | 3.524 ± 0.026 | –
x1 = 0.7663 | 6.413 ± 0.046 | 5.276 ± 0.039 | 4.492 ± 0.033 | 3.804 ± 0.028
x1 = 0.8807 | 8.261 ± 0.058 | 5.704 ± 0.042 | 5.704 ± 0.041 | 4.834 ± 0.036
x2 = 0.1 | – | 6.901 ± 0.082 | – | –
x2 = 0.2 | – | 5.697 ± 0.069 | – | –
x2 = 0.3 | – | 4.498 ± 0.055 | – | –
x2 = 0.4 | – | 3.461 ± 0.043 | – | –
x2 = 0.5 | – | 2.724 ± 0.034 | – | –
x2 = 0.6 | – | 2.14 ± 0.027 | – | –
x2 = 0.7 | – | 1.705 ± 0.021 | – | –
x2 = 0.8 | – | 1.401 ± 0.018 | – | –
x2 = 0.9 | – | 1.142 ± 0.015 | – | –

Cc1cccc(C)c1 + C1COCCO1
Conditions | viscosity [mPa·s]
298.15 K, 101 kPa, x2 = 0.7182 | 1.005 ± 0.021

NCCCO + C1COCCO1
viscosity [mPa·s], 101 kPa
Conditions | x1 = 0.1197 | x1 = 0.2269 | x1 = 0.3332 | x1 = 0.4339 | x1 = 0.5403 | x1 = 0.6385 | x1 = 0.7328 | x1 = 0.8244 | x1 = 0.9072
298.15 K | 1.419 ± 0.026 | 1.847 ± 0.033 | 2.619 ± 0.047 | 3.465 ± 0.062 | 4.883 ± 0.088 | 6.97 ± 0.12 | 10.21 ± 0.18 | 15 ± 0.27 | 20.98 ± 0.37
303.15 K | 1.294 ± 0.023 | 1.654 ± 0.03 | 2.311 ± 0.042 | 3.05 ± 0.055 | 4.251 ± 0.076 | 5.966 ± 0.11 | 8.411 ± 0.15 | 12.14 ± 0.22 | 16.7 ± 0.3
308.15 K | 1.188 ± 0.022 | 1.488 ± 0.027 | 2.037 ± 0.037 | 2.674 ± 0.048 | 3.624 ± 0.065 | 4.916 ± 0.088 | 6.868 ± 0.12 | 9.516 ± 0.17 | 13.47 ± 0.24

O=S1(=O)CCCC1 + C1COCCO1
viscosity [mPa·s], 101 kPa
Conditions | x1 = 0.0809 | x1 = 0.1742 | x1 = 0.2786 | x1 = 0.3855 | x1 = 0.4739 | x1 = 0.5744 | x1 = 0.6247 | x1 = 0.7169 | x1 = 0.8462 | x1 = 0.9062
303.15 K | 1.276 ± 0.012 | 1.517 ± 0.015 | 1.854 ± 0.018 | 2.293 ± 0.022 | 2.756 ± 0.027 | 3.428 ± 0.033 | 3.841 ± 0.037 | 4.786 ± 0.047 | 6.656 ± 0.063 | 7.852 ± 0.073
313.15 K | 1.086 ± 0.011 | 1.284 ± 0.013 | 1.558 ± 0.015 | 1.912 ± 0.018 | 2.28 ± 0.022 | 2.809 ± 0.027 | 3.13 ± 0.03 | 3.861 ± 0.037 | 5.275 ± 0.051 | 6.164 ± 0.059
323.15 K | 0.9369 ± 0.0093 | 1.104 ± 0.011 | 1.332 ± 0.013 | 1.622 ± 0.016 | 1.922 ± 0.019 | 2.348 ± 0.023 | 2.605 ± 0.025 | 3.182 ± 0.03 | 4.278 ± 0.041 | 4.942 ± 0.048

O=S1(=O)CCCC1 + C1COCO1
viscosity [mPa·s], 101 kPa
Conditions | 303.15 K | 308.15 K | 313.15 K | 318.15 K | 323.15 K
x1 = 0.207 | 0.89 ± 0.09 | 0.85 ± 0.09 | 0.82 ± 0.08 | 0.78 ± 0.08 | 0.75 ± 0.08
x1 = 0.43 | 1.49 ± 0.15 | 1.39 ± 0.14 | 1.24 ± 0.13 | 1.21 ± 0.12 | 1.17 ± 0.12
x1 = 0.658 | 3.04 ± 0.31 | 2.53 ± 0.26 | 2.32 ± 0.24 | 2.12 ± 0.22 | 1.99 ± 0.2
